The numbers were not newly measured in patent US20160158203A1, “METHODS OF TREATMENT WITH BIOAVAILABLE COMPOSITIONS OF METAXALONE COMPRISING NONVOLATILE LIQUIDS” (priority 2004, published 2016), which cites them from elsewhere.

Each structure is given as a SMILES string.

The conditions of this series: as reviewed in U.S. Pat. Nos. 6,407,128 and 6,683,102.

In the case of `Cc1cc(C)cc(OCC2CNC(=O)O2)c1` (stereo not shown) [metaxalone, 5-[(3,5-dimethylphenoxy)methyl]-2 oxazolidinone], the “Aqueous solubility (description)” value is on record as “essentially water-insoluble”.
